Columns and labels:
[1] = system: Fmr1^−/− mice; assay: Novelty-suppressed feeding; format: in vivo, mouse; conditions: chronic NaBr 250 mg/kg once daily
Method: (§1) Mice were treated with vehicle (NaCl 0.9%; ip, 10 or 20 ml/kg), NaBr (Sigma-Aldrich, Saint-Quentin Fallavier, France) administered either chronically (once a day, 10, 30, 70, 125, 250 and 500 mg/kg; i.p. or per os, in a volume of 20 ml/kg—except for combination with VU0155041: […]) or acutely (250 mg/kg, 20 ml/kg), KBr (Sigma-Aldrich, Saint-Quentin Fallavier, France; 145 mg/kg; i.p., 20 ml/kg), bumetanide (R&D systems, Minneapolis, USA, 0.5 and 2 mg/kg; i.p., 20 ml/kg) or VU0155041 (Cayman Chemicals, Ann Arbor, USA, once a day, i.p., 1 mg/kg, 10 ml/kg). […] When treatment was given chronically, behavioral testing started 8 days after beginning of daily administration. Treatment was maintained for 8 to 18 consecutive days (see timelines in FIGS. 1 and 4), allowing thorough behavioral phenotyping. On testing days, or when treatment was given acutely, drugs (or vehicle) were administered 30 min before behavioral assays.
(§2) Novelty-suppressed feeding. Novelty-suppressed feeding (NSF) was measured in 24-hr food-deprived mice, isolated in a standard housing cage for 30 min before individual testing. Three pellets of ordinary lab chow were placed on a white tissue in the center of each arena, lit at 60 lx. Each mouse was placed in a corner of an arena and allowed to explore for a maximum of 15 min. Latency to feed was measured as the time necessary to bite a food pellet. Immediately after an eating event, the mouse was transferred back to home cage (free from cage-mates) and allowed to feed on lab chow for 5 min. Food consumption in the home cage was measured.
(§3) To this purpose, we evaluated the effects of chronic NaBr administration at the dose of 250 mg/kg on autism-sensitive behaviors in these lines (FIG. 3A).

[2] = system: Shank3^Δex13-16−/− mice; assay: Novelty-suppressed feeding; format: in vivo, mouse; conditions: Shank3Δex13-16−/− mice; chronic NaBr 250 mg/kg once daily
Method: as §1, §2, §3

[3] = system: Fmr1^−/− mice; assay: Direct social interaction test; format: in vivo, mouse
Method: as §1
(§4) Direct social interaction test. On testing day, a pair of unfamiliar mice (not cage mates, age-, sex- and treatment-matched) was introduced in each arena for 10 min (15 lx). Each arena received a black plastic floor (transparent to infrared). […] The mean duration of nose and paw contacts was calculated from previous data (61-63).
as §3

[4] = system: gene expression in Oprm1 null mice (NAc, CPu, VP/Tu, MeA, VTA/SNc); assay: Real-time quantitative PCR of brain reward/social circuit regions; format: in vivo, mouse
Method: Brains were removed and placed into a brain matrix (ASI Instruments, Warren, MI, USA). Nucleus accumbens (NAc), caudate putamen (CPu), ventral pallidum/olfactory tubercle (VP/Tu), medial nucleus of the amygdala (MeA) and ventral tegmental area/substancia nigra pars compacta (VTA/SNc) were punched out/dissected from 1 mm-thick slices (data not shown). Tissues were immediately frozen on dry ice and kept at −80° C. until use. For each structure of interest, genotype and condition, samples were processed individually (n=8). RNA was extracted and purified using the Direct-Zol RNA MiniPrep kit (Zymo research, Irvine, USA). cDNA was synthetized using the ProtoScript II Reverse Transcriptase kit (New England BioLabs, Évry-Courcouronnes, France). qRT-PCR was performed in quadruplets on a CFX384 Touch Real-Time PCR Detection System (Biorad, Marnes-la-Coquette, France) using iQ-SYBR Green supermix (Bio-Rad) kit with 0.25 μl cDNA in a 12 μl final volume in Hard-Shell Thin-Wall 384-Well Skirted PCR Plates (Bio-rad). Gene-specific primers were designed using Primer3 software to obtain a 100- to 150-bp product. Relative expression ratios were normalized to the level of actin and the 2^−ΔΔCt method was applied to evaluate differential expression level. Gene expression values differing of the mean by more than two standard deviations were considered as outliers and excluded from further calculations.
To shed light on the molecular mechanism involved in beneficial effects of chronic sodium bromide administration, we assessed the effects of a 2-week NaBr treatment on gene expression in Oprm1 null mice across five regions of the brain reward/social circuit: NAc, CPu, VP/Tu, MeA and VTA/SNc. Mice underwent a first session of social interaction after one week under treatment and a second 45 min before sacrifice for qRT-PCR experiment (data not shown). We focused primarily on genes coding for chloride transporters (Slc12a2 [NKCC1], Slc12a4, 5, 6, 7 [KCC1,2,3,4, respectively], ClCa1), GABAA receptor subunits (Gabra1, 2, 3, 4, 5, Gabrb1, 2) and glutamate receptors (Grm2, 4, 5) and subunits (Grin2a, 2b). In addition, we evaluated the expression of marker genes of neuronal expression and plasticity (Fos, Bdnf), social behavior (Oxt) and striatal projection neurons (SPNs; Crh, Drd1a, Drd2, Htr6, Pdyn, Penk).

[5] = stated in conclusion, no data; cited from earlier work
[6] = system: Oprm1^−/− mice; assay: Direct social interaction test; format: in vivo, mouse
Method: as §1
When assessing effects of chronic administration, experiments were performed successively (timelines in FIGS. 1 and 4) (51, 60). Testing order was chosen to minimize the incidence of anxiety on later assays. Direct social interaction and novelty suppressed feeding were performed in 4 equal square arenas (open fields, 50×50 cm) separated by 35 cm-high opaque grey Plexiglas walls over a white Plexiglas platform (View Point, Lyon, France). Stimulus mice used for the three-chamber test were 8-14-week-old grouped-housed male or female wild-type mice, socially naive to the experimental animals.
as §4

[7] = chronic NaBr 250 mg/kg once daily
[8] = one week after interruption of NaBr 250 mg/kg
[9] = Oprm1−/− mice, chronic once daily, NaBr 10-500 mg/kg (effect from 125 mg/kg) or bumetanide 0.5 and 2 mg/kg, D9
[10] = Oprm1−/− mice, one week after cessation of chronic treatment (NaBr over 70 mg/kg, highest doses; bumetanide depending on the dose)

Compound: [Br-].[Na+] [NaBr, sodium bromide]
- food intake [1]: no modification in their food intake
- latency to eat [1]: reduced this latency
- food intake [2]: had no effect on food intake
- latency to eat [2]: normalized this latency to WT levels
- duration of nose contacts [3, 7]: restored the duration of nose
- duration of paw contacts [3, 7]: restored
- grooming after social contact [3, 7]: suppressed grooming after social contact
- number of following episodes [3, 7]: normalized the number of following episodes
- duration of paw contacts [3, 8]: significant beneficial effects were still detected
- number of grooming episodes after a social contact [3, 8]: significant beneficial effects were still detected
- ClCa1 transcription ([4]; CPu, mice of both genotypes, 2-week NaBr): increased ClCa1 transcription in mice of both genotypes
- Oxt expression ([4]; MeA and VTA/SNc, 2-week NaBr): induced Oxt expression in the MeA and VTA/SNc
- expression of chloride transporter genes ([4]; Oprm1−/− mice, 2-week NaBr treatment, qRT-PCR): increased the expression of all tested chloride transporters in Oprm1^−/− mice
- expression of Gabra3, Gabra4, Gabra5, Gabrg1 and Gabrb2 ([4]; Oprm1−/− mice, CPu, 2-week NaBr): consistently upregulated the expression of Gabra3, Gabra4, Gabra5, Gabrg1 and Gabrb2 in the CPu of mutant mice
- Oxt mRNA levels ([4]; Oprm1−/− mice, NAc (former) and VP/Tu (latter), 2-week NaBr): normalized by NaBr in the former and partially in the latter
- Gabra2 expression ([4]; Oprm1−/− mice, NAc and CPu (left high in VP/Tu and MeA), 2-week NaBr): stimulated the expression of Gabra2
- Slc12a5 expression ([4]; Oprm1−/− mice, NAc, CPu and MeA, 2-week NaBr): up-regulated the expression of Slc12a5 and Slc12a7
- Slc12a7 expression ([4]; Oprm1−/− mice, NAc, CPu, MeA and VP/Tu, 2-week NaBr): up-regulated the expression of Slc12a5 and Slc12a7
- Fos expression ([4]; Oprm1−/− mice, NAc, VP/Tu, CPu, 2-week NaBr): down-regulated the expression of the early gene Fos in the NAc and VP/Tu and maintained it low in the CPu
- ClCa1 mRNA levels ([4]; Oprm1−/− mice, NAc, VP/Tu, MeA, VTA/SNc, 2-week NaBr): normalized by NaBr treatment in the NAc, increased in the VP/Tu and maintained high in the MeA and VTA/SNc
- Slc12a2 expression ([4]; Oprm1−/− mice, decreased in all brain regions but the VP/Tu before treatment, 2-week NaBr): normalized under bromide treatment
- Grm4 expression ([4]; all brain regions but the VTA/SNc of Oprm1−/− mice, and NAc of wild-type controls, 2-week NaBr): upregulated the expression of Grm4
- brain penetrance [5]: excellent
- oral bioavailability [5]: excellent oral bioavailability
- social interaction in wild-type controls ([6]; Oprm1+/+ mice, chronic once daily, NaBr 10-500 mg/kg or bumetanide 0.5 and 2 mg/kg): had no detectable effect in Oprm1^+/+ mice
- social interaction behavioral parameters ([6]; Oprm1−/− mice, NaBr 70 mg/kg, VU0155041 1 mg/kg, alone or combined, once daily, chronic): had no detectable effects on behavioral parameters
- social interaction deficit ([6]; Oprm1−/− mice, chronic once daily i.p., NaBr 10-500 mg/kg or bumetanide 0.5 and 2 mg/kg, D9): from the dose of 125 mg/kg dose-dependently relieved this deficit
- number of nose contacts ([6]; Oprm1−/− mice, chronic once daily, NaBr 10-500 mg/kg (effect from 125 mg/kg) or bumetanide 0.5 and 2 mg/kg (effect at low dose), D9): restored number
- mean duration of nose contacts [6, 9]: restored
- mean duration of paw contacts [6, 9]: normalized
- number of paw contacts [6, 9]: normalized number
- grooming after social contact ([6]; Oprm1−/− mice, chronic once daily, NaBr 10-500 mg/kg or bumetanide 0.5 and 2 mg/kg, D9): normalized the frequency of grooming after social contact in mutants, since the dose of 70 mg/kg
- duration of nose contacts [6, 10]: preserved restoration of the duration of nose contacts
- grooming after social contact [6, 10]: maintained suppression of grooming after social contact
- social interaction parameters ([6]; Oprm1−/− mice, single acute injection of NaBr 250 mg/kg, data not shown): had little effect on social interaction parameters
- relieving effects on social interaction ([6]; Oprm1−/− mice, two weeks after cessation of chronic NaBr, data not shown): had mostly vanished after two weeks
- number of following episodes ([6]; chronic once daily, NaBr 10-500 mg/kg (both mouse lines) or bumetanide (at low dose), D9): increased the number of following episodes in both mouse lines
